Laboratory results reported in US20080045512A1, “Benzoate salt of 4-(5-methyl-oxazolo[4,5-b]-pyridin-2-yl)-1,4-diazabicyclo[3.2.2]nonane” (Pfizer Inc., priority 2006, published 2008).
Where a name gives a salt, the structure may show the parent alone.

Legend:
[1] = Hygroscopicity by dynamic vapor sorption (isothermal moisture sorption analysis); format: physicochemical; settings: for hygroscopicity (result in words): dynamic vapor sorption, 25° C.
Procedure: Hygroscopicity was assessed using a dynamic vapor sorption technique in which an accurately weighed sample is subjected to progressively changing water vapor pressure while simultaneously recording the weight change. The experiment is conducted isothermally at 25° C.
For 4-(5-methyloxazolo[4,5-b]pyridin-2-yl)-1,4-diazabicyclo[3.2.2]nonane benzoate Form A, less than 0.1% increase in weight was detected at 90±2% relative humidity during an isothermal (24.9±0.1° C.) moisture sorption analysis conducted from approximately 1% to 90% (±2%) humidity. Considering standard deviation, it is considered that increase in weight is less than 0.2%.

[2] = Comparison of salts of Formula I: physical properties tested and observed; format: physicochemical
Procedure: Physical properties of various salts of Formula I were tested and observed.

[3] = cited from earlier work
[4] = cited from earlier work; remark: listed apart in the source

Compound: Cc1ccc2oc(N3CCN4CCC3CC4)nc2n1 [benzoate salt of Formula I, 4-(5-methyloxazolo[4,5-b]pyridin-2-yl)-1,4-diazabicyclo[3.2.2]nonane benzoate]
- increase in weight in moisture sorption analysis ([1]; at 90±2% relative humidity, isothermal 24.9±0.1° C., from approximately 1% to 90% (±2%) humidity): less than 0.1%
- hygroscopicity (result in words) [1]: relatively non-hygroscopic
- hygroscopicity (result in words) ([1]; listed as 4-(5-methyloxazolo[4,5-b]pyridin-2-yl)-1,4-diazabicyclo[3.2.2]nonane benzoate Fo): non-hygroscopic

Compound: fumarate
- hygroscopicity (result in words) [2]: undesirable hygroscopicity

Compound: L-lactate
- hygroscopicity (result in words) [2]: undesirable hygroscopicity

Compound: O=C1Cc2cc(CCN3CCN(c4nsc5ccccc45)CC3)c(Cl)cc2N1 [Ziprasidone, 5-[2-[4-(1,2-benzisothiazol-3-yl)piperazin-1-yl]ethyl]-6-chloroindolin-2-one]
- protein binding [3]: extensive
- half-life ([4]; in vivo): 6 to 7 h
- Oral bioavailability ([4]; taken with food): approximately 60%
